≈ marks a conversion by molar mass, not a printed value.
Tests used:
S. paratyphi 11737 = test: In vitro antibacterial activity (MIC), S. paratyphi 11737; assay type: cell-based; settings: Salmonella enterica, 18 h
E. coli 9637 = test: In vitro antibacterial activity (MIC), E. coli 9637; settings: Escherichia coli, 9637, 18 h
S. aureus Smith = test: In vitro antibacterial activity (MIC), S. aureus Smith; settings: Staphylococcus aureus, 18 h
S. aureus 53-180 = test: In vitro antibacterial activity (MIC), S. aureus 53-180; settings: Staphylococcus aureus, 53180, 18 h
P. vulgaris 6896 = test: In vitro antibacterial activity (MIC), P. vulgaris 6896; settings: Proteus vulgaris, 6896, 18 h
N. catarrhalis 8193 = test: In vitro antibacterial activity (MIC), N. catarrhalis 8193; settings: 18 h
K. pneumoniae 10031 = test: In vitro antibacterial activity (MIC), K. pneumoniae 10031; settings: Klebsiella pneumoniae, 10031, 18 h

Row | Structure (SMILES) | MIC (S. paratyphi 11737) | MIC (E. coli 9637) | MIC (S. aureus Smith) | MIC (S. aureus 53-180) | MIC (P. vulgaris 6896) | MIC (N. catarrhalis 8193) | MIC (K. pneumoniae 10031)
1 | Nc1nc(N)c2c(ccc3c2ccn3-c2ccccc2C(F)(F)F)n1 [Example 93] | 0.976 µg/mL (≈ 2.84 µM) | 0.244 µg/mL (≈ 0.711 µM) | 0.061 µg/mL (≈ 0.178 µM) | 0.031 µg/mL (≈ 0.0903 µM) | 1.95 µg/mL (≈ 5.68 µM) | 0.0076 µg/mL (≈ 0.0221 µM) | 0.061 µg/mL (≈ 0.178 µM)
2 | Nc1nc(N)c2c(ccc3[nH]c4c(c32)CCCC4)n1 [Example 107, 8,9,10,11-Tetrahydro-7H-pyrimido-[4,5-c]carbazole-1,3-diamine] | 125 µg/mL (≈ 493 µM) | 125 µg/mL (≈ 493 µM) | 62.5 µg/mL (≈ 247 µM) | 125 µg/mL (≈ 493 µM) | > 250 µg/mL | 125 µg/mL (≈ 493 µM) | 125 µg/mL (≈ 493 µM)
3 | COc1cc(Cn2ccc3c4c(N)nc(N)nc4ccc32)cc(OC)c1 [Example 58] | 1.95 µg/mL (≈ 5.58 µM) | 0.976 µg/mL (≈ 2.79 µM) | 0.488 µg/mL (≈ 1.4 µM) | 0.244 µg/mL (≈ 0.698 µM) | 15.6 µg/mL (≈ 44.6 µM) | 0.061 µg/mL (≈ 0.175 µM) | 0.122 µg/mL (≈ 0.349 µM)
4 | Nc1nc(N)c2c(ccc3c2ccn3-c2ccnc3cc(Cl)ccc23)n1 [Example 89] | > 250 µg/mL | 15.6 µg/mL (≈ 43.2 µM) | 0.488 µg/mL (≈ 1.35 µM) | 0.122 µg/mL (≈ 0.338 µM) | 250 µg/mL (≈ 693 µM) | 0.244 µg/mL (≈ 0.676 µM) | 0.488 µg/mL (≈ 1.35 µM)
5 | CCC(=O)c1ccc(-n2ccc3c4c(N)nc(N)nc4ccc32)cc1 [Example 72] | > 250 µg/mL | 15.6 µg/mL (≈ 47.1 µM) | 31.3 µg/mL (≈ 94.5 µM) | 7.81 µg/mL (≈ 23.6 µM) | > 250 µg/mL | 0.031 µg/mL (≈ 0.0935 µM) | 31.3 µg/mL (≈ 94.5 µM)
6 | Nc1nc(N)c2c(ccc3c2ccn3-c2cnccn2)n1 [Example 85] | 3.9 µg/mL (≈ 14.1 µM) | 0.976 µg/mL (≈ 3.52 µM) | 3.9 µg/mL (≈ 14.1 µM) | 1.95 µg/mL (≈ 7.03 µM) | 3.9 µg/mL (≈ 14.1 µM) | 0.122 µg/mL (≈ 0.44 µM) | 0.976 µg/mL (≈ 3.52 µM)
7 | Nc1nc(N)c2c(ccc3c2ccn3-c2ccc([N+](=O)[O-])cc2[N+](=O)[O-])n1 [Example 78] | > 250 µg/mL | 3.9 µg/mL (≈ 10.7 µM) | 0.0076 µg/mL (≈ 0.0208 µM) | 0.0076 µg/mL (≈ 0.0208 µM) | > 250 µg/mL | 0.0019 µg/mL (≈ 0.0052 µM) | 0.031 µg/mL (≈ 0.0849 µM)
8 | Nc1nc(N)c2c(ccc3c2ccn3Cc2cscn2)n1 [Example 42] | 0.976 µg/mL (≈ 3.29 µM) | 0.244 µg/mL (≈ 0.823 µM) | 0.488 µg/mL (≈ 1.65 µM) | 0.244 µg/mL (≈ 0.823 µM) | 0.976 µg/mL (≈ 3.29 µM) | 0.0038 µg/mL (≈ 0.0128 µM) | 0.122 µg/mL (≈ 0.412 µM)
9 | Nc1nc(N)c2c(ccc3c2ccn3Cc2cccs2)n1 [Example 59] | 0.244 µg/mL (≈ 0.826 µM) | 0.061 µg/mL (≈ 0.207 µM) | 0.244 µg/mL (≈ 0.826 µM) | 0.061 µg/mL (≈ 0.207 µM) | 0.244 µg/mL (≈ 0.826 µM) | 0.0019 µg/mL (≈ 0.00643 µM) | 0.061 µg/mL (≈ 0.207 µM)
10 | Nc1nc(N)c2c(ccc3[nH]ccc32)n1 [Example 1, 7-H-Pyrrolo[3,2-f]quinazoline-1,3-diamine] | 31.3 µg/mL (≈ 157 µM) | 3.9 µg/mL (≈ 19.6 µM) | 31.3 µg/mL (≈ 157 µM) | 31.3 µg/mL (≈ 157 µM) | 15.6 µg/mL (≈ 78.3 µM) | 0.244 µg/mL (≈ 1.22 µM) | 7.81 µg/mL (≈ 39.2 µM)
11 | N#Cc1cc([N+](=O)[O-])ccc1-n1ccc2c3c(N)nc(N)nc3ccc21 [Example 79] | > 250 µg/mL | 15.6 µg/mL (≈ 45.2 µM) | 0.488 µg/mL (≈ 1.41 µM) | 0.488 µg/mL (≈ 1.41 µM) | > 250 µg/mL | 0.244 µg/mL (≈ 0.707 µM) | 1.95 µg/mL (≈ 5.65 µM)
12 | Nc1nc(N)c2c(ccc3c2ccn3Cc2csc3ccccc23)n1 [Example 46] | > 250 µg/mL | 125 µg/mL (≈ 362 µM) | 31.3 µg/mL (≈ 90.6 µM) | 31.3 µg/mL (≈ 90.6 µM) | > 250 µg/mL | 1.95 µg/mL (≈ 5.65 µM) | 15.6 µg/mL (≈ 45.2 µM)
13 | Nc1nc(N)c2c(ccc3c2ccn3-c2ccnc3cc(C(F)(F)F)ccc23)n1 [Example 90] | 31.3 µg/mL (≈ 79.4 µM) | 0.244 µg/mL (≈ 0.619 µM) | 0.122 µg/mL (≈ 0.309 µM) | 0.031 µg/mL (≈ 0.0786 µM) | 250 µg/mL (≈ 634 µM) | 0.031 µg/mL (≈ 0.0786 µM) | 0.244 µg/mL (≈ 0.619 µM)
14 | Nc1nc(N)c2c(ccc3c2ccn3-c2ccnc3ccccc23)n1 [Example 87] | 0.976 µg/mL (≈ 2.99 µM) | 0.488 µg/mL (≈ 1.5 µM) | 0.031 µg/mL (≈ 0.095 µM) | 0.0152 µg/mL (≈ 0.0466 µM) | 1.95 µg/mL (≈ 5.97 µM) | 0.031 µg/mL (≈ 0.095 µM) | 0.031 µg/mL (≈ 0.095 µM)
15 | Nc1nc(N)c2c(ccc3c2ccn3-c2ccc([N+](=O)[O-])cc2C(F)(F)F)n1 [Example 94] | 62.5 µg/mL (≈ 161 µM) | 31.3 µg/mL (≈ 80.6 µM) | 0.122 µg/mL (≈ 0.314 µM) | 0.122 µg/mL (≈ 0.314 µM) | 125 µg/mL (≈ 322 µM) | 0.061 µg/mL (≈ 0.157 µM) | 0.488 µg/mL (≈ 1.26 µM)
16 | Cc1cc(-n2ccc3c4c(N)nc(N)nc4ccc32)nc2ccccc12 [Example 88] | > 250 µg/mL | 62.5 µg/mL (≈ 184 µM) | 62.5 µg/mL (≈ 184 µM) | 31.3 µg/mL (≈ 92 µM) | > 250 µg/mL | 0.061 µg/mL (≈ 0.179 µM) | 31.3 µg/mL (≈ 92 µM)
17 | Nc1nc(N)c2c(ccc3c2c2c(n3Cc3ccccc3)CCCC2)n1 [Example 108, 8,9,10,11-Tetrahydro-7-(phenylmethyl)-7H-pyrimido[4,5-c]carbazole-1,3-diamine] | > 250 µg/mL | > 250 µg/mL | > 250 µg/mL | 250 µg/mL (≈ 728 µM) | > 250 µg/mL | 0.122 µg/mL (≈ 0.355 µM) | > 250 µg/mL
